Experimental data taken from patent US20250290117A1, “MOLECULAR PHENOTYPIC ANTIMICROBIAL SUSCEPTIBILITY TESTING” (priority 2024, published 2025).

Experiments:
[1] = test system: M. morganii; assay: Molecular phenotypic antimicrobial susceptibility test, specimen with two detected pathogens incubated together without isolation; assay type: cell-based, Morganella morganii; details: M. morganii in specimen with two detected pathogens (E. coli and M. morganii) incubated together; for Ct of Sensitive Breakpoint: Ct of controls (average) 19.99; for Molecular Antimicrobial Susceptibility Result: at sensitive breakpoint
Experimental: Detection of Molecular Phenotypic Antimicrobial Susceptibility. Disclosed herein are the methods for the detection of phenotypic antimicrobial susceptibility via molecular methods. The present invention describes how a specimen 100 with a known microbial load is incubated and then exposed to a panel of antimicrobial agents to determine sensitivity (prevention of growth) or resistance (allowance of growth) to the specific antimicrobial agents tested utilizing molecular methods.
Sample Collection. Specimens 100 are collected from patients using sterile collection processes that are employed in routine clinical care. Specimens are transported to the testing facility in boric acid preservative. Specimens 100 are subsequently divided into a first sample 104 and a second sample 108.
Preparation of the Specimens for Testing. The specimens 100 are put through a pathogen identification process using PCR technology (e.g., using the first sample 104). The process for pathogen isolation includes steps of harvesting the pathogen (e.g., via centrifugation), isolating pathogen DNA via a DNA isolation and/or purification kit, and performing PCR on the pathogen DNA via PCR components (e.g., primers, enzymes, buffers) as would be known to the skilled artisan. Simultaneously, an additional aliquot of the same specimen (e.g., the second sample 108) is placed with liquid culture media and incubated for 4-6 hours. This aliquot is used for antimicrobial susceptibility testing if indicated based on the pathogen detection results. After pathogen identification is completed and if more than 10,000 cells/mL of bacteria (e.g., eligible bacteria) are detected in the source specimen, the second sample 108 then enters the antimicrobial susceptibility phase of testing. Specimens 100 with lower pathogen loads could also be utilized in the antibiotic susceptibility phase of testing with or without a longer incubation period.
Preparation of Antimicrobial Susceptibility Testing Plates. Antimicrobial solutions are prepared at known concentrations. The specific antimicrobials and their concentrations are selected based on the pathogen of interest and the described antimicrobial resistance breakpoints for that specimen pathogen and antimicrobial combination. These antimicrobials have been selected based on those commonly utilized by healthcare providers in routine clinical care for the specific type of suspected infection. The number and types of antimicrobials utilized can be customized based on the infection source, pathogen detected, patient-specific factors such as allergies or other health conditions (e.g., chronic kidney disease or concurrent medication use), or healthcare provider preferences such as antimicrobial availability or cost.
The antimicrobial solutions are prepared in liquid culture media (such as Muller Hinton Broth) to achieve the desired antimicrobial concentration and are then stored at −80° C. until use. For a given specimen, each antimicrobial is tested at a single or multiple antimicrobial concentration(s) which is its established breakpoints for sensitivity. The antimicrobial solutions are prepared and plated out for each specific pathogen. This allows ease of use on the day of testing after defrosting the plate 112. Table 1, which illustrates the results of molecular phenotypic antimicrobial susceptibility testing when more than one organism is present in the source specimen, provides an example of an antimicrobial plate 112 prepared for this purpose. Of note, control wells containing only culture media are present on all plates 112. This allows for evaluation of pathogen load when no antimicrobial is present.
Specimen Exposure to Antimicrobial Agents. The 1 mL aliquot of the specimen 100 previously mixed with culture media and incubated is obtained. Using optical density measurements as a guide, the specimen 100 is diluted to 0.5 McFarland. […]

[2] = test system: pathogen of the specimen; assay: Molecular phenotypic antimicrobial susceptibility test with direct PCR at various incubation timepoints (Table 7); assay type: cell-based
Experimental: Detection of Molecular Phenotypic Antimicrobial Susceptibility. Disclosed herein are the methods for the detection of phenotypic antimicrobial susceptibility via molecular methods. The present invention describes how a specimen 100 with a known microbial load is incubated and then exposed to a panel of antimicrobial agents to determine sensitivity (prevention of growth) or resistance (allowance of growth) to the specific antimicrobial agents tested utilizing molecular methods. Sample Collection. Specimens 100 are collected from patients using sterile collection processes that are employed in routine clinical care. Specimens are transported to the testing facility in boric acid preservative. […] The process for pathogen isolation includes steps of harvesting the pathogen (e.g., via centrifugation), isolating pathogen DNA via a DNA isolation and/or purification kit, and performing PCR on the pathogen DNA via PCR components (e.g., primers, enzymes, buffers) as would be known to the skilled artisan. […] This aliquot is used for antimicrobial susceptibility testing if indicated based on the pathogen detection results. […] Specimens 100 with lower pathogen loads could also be utilized in the antibiotic susceptibility phase of testing with or without a longer incubation period. […] Antimicrobial solutions are prepared at known concentrations. The specific antimicrobials and their concentrations are selected based on the pathogen of interest and the described antimicrobial resistance breakpoints for that specimen pathogen and antimicrobial combination. These antimicrobials have been selected based on those commonly utilized by healthcare providers in routine clinical care for the specific type of suspected infection. The number and types of antimicrobials utilized can be customized based on the infection source, pathogen detected, patient-specific factors such as allergies or other health conditions (e.g., chronic kidney disease or concurrent medication use), or healthcare provider preferences such as antimicrobial availability or cost. The antimicrobial solutions are prepared in liquid culture media (such as Muller Hinton Broth) to achieve the desired antimicrobial concentration and are then stored at −80° C. until use. For a given specimen, each antimicrobial is tested at a single or multiple antimicrobial concentration(s) which is its established breakpoints for sensitivity. The antimicrobial solutions are prepared and plated out for each specific pathogen. […] This allows for evaluation of pathogen load when no antimicrobial is present. Specimen Exposure to Antimicrobial Agents. The 1 mL aliquot of the specimen 100 previously mixed with culture media and incubated is obtained. Using optical density measurements as a guide, the specimen 100 is diluted to 0.5 McFarland. […] Antimicrobial exposure plates are typically placed into an incubator for 12-16 hours. […] Nucleic Acid Amplification of Antimicrobial Agent Exposed Pathogens. The antimicrobial exposure plate is removed after the period of incubation. The specimen then undergoes a purification or lysis step. For example, the specimen may undergo a purification step (e.g., magnetic bead-based or other separation protocol to isolate genetic material). In another example, the specimen may undergo a cell lysis step. For example, buffer (e.g., lysis buffer) may be added and incubated in the thermal cycler for preparation for direct PCR. Next, the specimen may undergo a polymerase chain reaction (PCR) testing protocol, whereby a semi-quantitative PCR method is utilized. This may be completed either with or without a specific extraction protocol step. The pathogens can be individually targeted and detected, or a universal genetic sequence can be utilized to detect the antimicrobial susceptibility of the specimen as a whole. The control wells are utilized as a threshold for determining antimicrobial sensitivity or resistance. […] Antimicrobial Susceptibility Result Interpretation.

[3] = E. coli isolate 1189, antibiotic incubation time 4 hours
[4] = E. coli isolate 1189, antibiotic incubation time 4 hours, control average Ct […]
[5] = E. coli isolate 1189, antibiotic incubation time 6 hours
[6] = E. coli isolate 1189, antibiotic incubation time 6 hours, control average Ct 16.992
[7] = E. coli isolate 1189, antibiotic incubation time 8 hours
[8] = E. coli isolate 1189, antibiotic incubation time 8 hours, control average Ct […]
[9] = E. coli isolate 1189, antibiotic incubation time 10 hours
[10] = E. coli isolate 1189, antibiotic incubation time 10 hours, control average Ct 15.995
[11] = E. coli isolate 1189, antibiotic incubation time 12 hours
[12] = E. coli isolate 1189, antibiotic incubation time 12 hours, control average Ct 15.495
[13] = E. coli isolate 1189, antibiotic incubation time 14 hours
[14] = E. coli isolate 1189, antibiotic incubation time 14 hours, control average Ct 15.826
[15] = E. coli isolate 1189, antibiotic incubation time 16 hours
[16] = E. coli isolate 1189, antibiotic incubation time 16 hours, control average Ct 14.880

Compound	Ct of Sensitive Breakpoint [1]	Molecular Antimicrobial Susceptibility Result [1]	Molecular Antimicrobial Susceptibility Result [2, 3]	Ct at Sensitive Breakpoint [2, 4]	Molecular Antimicrobial Susceptibility Result [2, 5]	Ct at Sensitive Breakpoint [2, 6]	Molecular Antimicrobial Susceptibility Result [2, 7]	Ct at Sensitive Breakpoint [2, 8]	Molecular Antimicrobial Susceptibility Result [2, 9]	Ct at Sensitive Breakpoint [2, 10]	Molecular Antimicrobial Susceptibility Result [2, 11]	Ct at Sensitive Breakpoint [2, 12]	Molecular Antimicrobial Susceptibility Result [2, 13]	Ct at Sensitive Breakpoint [2, 14]	Molecular Antimicrobial Susceptibility Result [2, 15]	Ct at Sensitive Breakpoint [2, 16]
CO/N=C(\C(=O)N[C@@H]1C(=O)N2C(C(=O)[O-])=C(C[N+]3(C)CCCC3)CS[C@H]12)c1csc(N)n1 [Cefepime]	29.72	Sensitive (Antimicrobial wells with pathogen load detected below the control wells (typically >2 cycle thresholds later) may be reported as Sensitive)	Sensitive (Antimicrobial wells with pathogen load detected below the control wells (typically >2 cycle thresholds later) may be reported as Sensitive)	20.399	Sensitive (Antimicrobial wells with pathogen load detected below the control wells (typically >2 cycle thresholds later) may be reported as Sensitive)	20.178	Sensitive (Antimicrobial wells with pathogen load detected below the control wells (typically >2 cycle thresholds later) may be reported as Sensitive)	21.204	Sensitive (Antimicrobial wells with pathogen load detected below the control wells (typically >2 cycle thresholds later) may be reported as Sensitive)	21.613	Sensitive (Antimicrobial wells with pathogen load detected below the control wells (typically >2 cycle thresholds later) may be reported as Sensitive)	22.447	Sensitive (Antimicrobial wells with pathogen load detected below the control wells (typically >2 cycle thresholds later) may be reported as Sensitive)	22.420	Sensitive (Antimicrobial wells with pathogen load detected below the control wells (typically >2 cycle thresholds later) may be reported as Sensitive)	23.502
Gentamicin	30.09	Sensitive (Antimicrobial wells with pathogen load detected below the control wells (typically >2 cycle thresholds later) may be reported as Sensitive)	Sensitive (Antimicrobial wells with pathogen load detected below the control wells (typically >2 cycle thresholds later) may be reported as Sensitive)	24.224	Sensitive (Antimicrobial wells with pathogen load detected below the control wells (typically >2 cycle thresholds later) may be reported as Sensitive)	25.270	Sensitive (Antimicrobial wells with pathogen load detected below the control wells (typically >2 cycle thresholds later) may be reported as Sensitive)	25.454	Sensitive (Antimicrobial wells with pathogen load detected below the control wells (typically >2 cycle thresholds later) may be reported as Sensitive)	25.318	Sensitive (Antimicrobial wells with pathogen load detected below the control wells (typically >2 cycle thresholds later) may be reported as Sensitive)	25.018	Sensitive (Antimicrobial wells with pathogen load detected below the control wells (typically >2 cycle thresholds later) may be reported as Sensitive)	24.069	Sensitive (Antimicrobial wells with pathogen load detected below the control wells (typically >2 cycle thresholds later) may be reported as Sensitive)	24.816
